# In ChEMBL document CHEMBL3638961, “Oxazine derivatives” (2015):
# Target: Beta-secretase 1 (Homo sapiens, UniProt P56817)
# Assay: Inhitbition Assay: 48.5 µL of substrate peptide solution (Biotin-XSEVNLDAEFRHDSGC-Eu: X=ε-amino-n-capronic acid, Eu=Europium cryptate) was added to each well of 96-hole half-area plate (a black plate: Costar), and after addition of 0.5 µl of the test compound (dissolved in N,N'-dimethyl formaldehyde) and 1 µl of Recombinant human BACE1(R&D Systems), the reaction mixture was incubated at 30° C. for 3 hours. The substrate peptide was synthesized by reacting Cryptate TBPCOOH mono SMP (CIS bio international) with Biotin-XSEVNLDAEFRHDSGC (Peptide Institute, Inc.). The final concentrations of the substrate peptide and Recombinant human BACE1 were adjusted to 18 nmol/L and 7.4 nmol/L, respectively, and the reaction was performed in sodium acetate buffer (50 mmol/L sodium acetate, pH 5.0, 0.008% Triton X-100).After the incubation for reaction, 50 µl of 8.0 µg/ml Streptavidin-XL665 (CIS bio international) dissolved in phosphate buffer.
# Sequence of Beta-secretase 1 (P56817 whole entry): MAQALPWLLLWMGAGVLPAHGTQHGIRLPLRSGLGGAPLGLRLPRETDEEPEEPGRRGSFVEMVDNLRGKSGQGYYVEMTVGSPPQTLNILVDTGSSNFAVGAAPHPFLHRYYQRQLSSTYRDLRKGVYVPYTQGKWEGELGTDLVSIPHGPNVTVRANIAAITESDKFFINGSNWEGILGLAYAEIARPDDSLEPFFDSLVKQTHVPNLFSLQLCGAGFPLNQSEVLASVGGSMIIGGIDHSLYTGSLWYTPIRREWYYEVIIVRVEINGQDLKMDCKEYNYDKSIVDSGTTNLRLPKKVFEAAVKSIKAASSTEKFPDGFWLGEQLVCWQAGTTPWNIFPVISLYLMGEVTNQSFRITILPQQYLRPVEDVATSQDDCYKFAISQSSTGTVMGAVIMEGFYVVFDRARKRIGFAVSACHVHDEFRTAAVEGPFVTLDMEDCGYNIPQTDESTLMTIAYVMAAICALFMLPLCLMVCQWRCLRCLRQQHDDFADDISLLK
row,Compound,IC50 [µM]
1,C[C@@]1(c2cc(NC(=O)c3ccc(C#N)cn3)ccc2Cl)CCOC(N)=N1,< 30
2,C[C@@]1(c2cc(NC(=O)c3ncc(F)cc3F)ccc2F)CCOC(N)=N1,< 30
3,CC1=C[C@@](C)(c2cc(NC(=O)c3ccc(C(F)(F)F)cn3)ccc2F)N=C(N)O1,< 30
4,COc1cnc(C(=O)Nc2ccc(F)c([C@]3(C)C=C(C)OC(N)=N3)c2)cn1,< 30

# Second part, the molecule after the results:
row,IC50 [µM],Compound
1,< 30,CC1=C[C@@](C)(c2cc(NC(=O)c3ccc(Cl)cn3)ccc2F)N=C(N)O1
2,< 30,CC1=C[C@@](C)(c2cc(NC(=O)c3ncc(F)cc3F)ccc2F)N=C(N)O1
3,< 30,CC1=C[C@@](C)(c2cc(NC(=O)c3ncc(C#N)cc3F)ccc2F)N=C(N)O1
